Results taken from patent US6150414A, “Compositions and methods for treating viral infections” (priority 1992, dated 2000).
Where “and” joins values, the source holds several entries; their conditions need not be identical. Equal entries are not always repeated. Where two headings read alike, the source gives them in different places.

Tested on: Friend Leukemia Virus
Assay: Inhibition of Friend Leukemia Virus-induced splenomegaly in mice, compounds intraperitoneally 24 hours after virus (Example 1(a))
Type: in vivo, BALB/c mice
Set-up: Actual Spleen Weight / Average Spleen Weight: unit not given here
Settings: for inhibition of FV-induced splenomegaly / anti-retroviral activity: Example 1(a); for inhibition in vivo at 0.1 mg / inhibition in vivo at 0.05 mg / inhibition in vivo at 0.2 mg: Mus musculus, ip; for Actual Spleen Weight: single animal; for Pooled Average % Inhibition: pooled over 50, 100, 200, 2 × 100 micrograms
Text: The effects of compositions according to the present invention on infection of mammals with Friend Leukemia Virus (FV) were examined.
Friend Leukemia Virus is an aggressive retrovirus which induces an acute erythroleukemia in sensitive strains of mice such as BALB/c and NIH swiss mice as described in Friend, C. J., Exp. Med. 105: 307-324, 1957; Friend, C. et al. Proc. Natl. Acad. Sci. USA 68: 378-383, 1971; Friend, C. et al. Natl. Cancer Inst. Mongr. 22: 508-552, 1966. The malignant transformation is the result of the combined activities of the Spleen Focus Forming Virus (SFFV) and the ecotropic Murine Friend Leukemia Helper Virus (F-MuLV). The acute erythroleukemia is characterized by hepatosplenomegaly (a marked increase in the size of the spleen and liver) and a severe anemia.
Friend Leukemia Virus was prepared by homogenizing the enlarged spleen of a mouse previously infected with FV, 10 days after intravenous virus injection. The spleen was homogenized in phosphate buffered saline in a volume equal to ten times the weight of the isolated spleen.
The effects of compositions according to the present invention on the increase in spleen size (splenomegaly) of BALB/c mice (Jackson Labs, Bar Harbor, ME) was examined. In these experiments, the virus (10^6 focus forming units--FFU) was inoculated intravenously and 100 micrograms of the compounds indicated in Table II were administered to the mice intraperitoneally 24 hours later. Each compound was administered once to two mice. The animals were sacrificed ten days later and their spleens weighed.
The present assay has been developed from similar assays using hypericin or pseudohypericin and employing higher numbers of experimental animals per group (e.g. 4 animals). It was discovered however that the specificity and sensitivity of this assay are such that an experimental group of two animals is of more than adequate predictive value.
As used in Table II (and subsequent Tables of this Example l(a) and (b), "average percent inhibition" is calculated as follows: [formula] wherein "ASWNC" designates "average spleen weight of negative control"; "ASWE" designates "average spleen weight of experimental (treated) subject"; and "ASWPC" designates "average spleen weight of positive control". Average spleen weight is the numerical average of spleen weights of each experimental group (in Table II each such group includes two members).
In these experiments, the virus (10^6 focus forming units--FFU) was inoculated intravenously, and the indicated doses of the antiviral compounds of this invention were administered to the BALB/c mice intraperitoneally 24 hours later. The animals were then sacrificed ten days later and their spleens weighed.
Pseudohypericin was diluted in phosphate buffered saline with 1% ethanol.
An expanded series of experiments was next performed in which various concentrations (i.e. 50, 100, 200 and 2×100, i.e., 100 micrograms administered twice) of a different set of PAC compounds (numbers 16-29 and 30-36 in Table III below) were administered intraperitoneally each according to the same protocol described above. Compounds 16-29 all had 3-5 fused, aromatic rings and no side groups except for oxygen or hydroxyl groups, whereas compounds 30-36 all had 3 fused aromatic rings and side chains selected from the group of oxygen, hydroxyl and methyl.
When 2 doses of the compounds were given, the second dose was administered 24-48 hours after the first injection. The animals were infected and splenomegaly determined as above for the compounds in Table II. In Table III, "pooled average percent inhibition" is calculated by adding the average percent inhibition for each experiment with the same compound and dividing the sum by the number of experiments (i.e. the number 4). […]

[1] = 100 micrograms i.p. once, 24 h after FV, Table II
[2] = dose 2 × 100 (micrograms) i.p., Table III, read-out: Average Perdosage % Inhibition
[3] = dose 50 (micrograms) i.p., Table III, read-out: Average Perdosage % Inhibition
[4] = dose 100 (micrograms) i.p., Table III, read-out: Average Perdosage % Inhibition
[5] = dose 200 (micrograms) i.p., Table III, read-out: Average Perdosage % Inhibition
[6] = dose 2 × 100 (micrograms) i.p., Table III
[7] = dose 50 (micrograms) i.p., Table III
[8] = dose 100 (micrograms) i.p., Table III
[9] = dose 200 (micrograms) i.p., Table III
[10] = dose 2 × 100 (micrograms) i.p., second dose 24-48 hours later, Table III
[11] = read-out: Average Perdosage % Inhibition, dose 2 × 100 (micrograms) i.p., Table III
[12] = read-out: Average Perdosage % Inhibition, dose 50 (micrograms) i.p., Table III
[13] = read-out: Average Perdosage % Inhibition, dose 100 (micrograms) i.p., Table III
[14] = read-out: Average Perdosage % Inhibition, dose 200 (micrograms) i.p., Table III

| Compound | Average Spleen Weight [1] | inhibition in vivo at 0.1 mg [2] [%] | inhibition in vivo at 0.05 mg [3] [%] | inhibition in vivo at 0.1 mg [4] [%] | inhibition in vivo at 0.2 mg [5] [%] | Average Spleen Weight [6] | Average Spleen Weight [7] | Average Spleen Weight [8] | Average Spleen Weight [9] | Pooled Average % Inhibition (Table III) [%] | further results |
| --- | --- | --- | --- | --- | --- | --- | --- | --- | --- | --- | --- |
| c1cc2ccc3ccc4ccc5ccc6ccc1c1c2c3c4c5c61 [Compound 8, Coronene] | 0.4739 |  |  |  |  |  |  |  |  |  | inhibition of FV-induced splenomegaly / anti-retroviral activity: significantly inhibited FV-induced splenomegaly; inhibition in vivo at 0.1 mg (24 h, read-out: Average % Inhibition, 100 micrograms i.p. once, 24 h after FV, Table II): 44.6% |
| O=C1OC(=O)c2ccc3c4ccc5c6c(ccc(c7ccc1c2c73)c64)C(=O)OC5=O [Compound 2, 3,4,9,10-Perylenetetracarboxylic dianhydride] | 0.8439 |  |  |  |  |  |  |  |  |  | Average % Inhibition [1]: 1.3%; Actual Spleen Weight [1]: 0.8678 and 0.8200 |
| O=C1c2ccc(O)cc2C(=O)c2ccc(O)cc21 [Compound 32, Anthraflavic acid] |  | 60 | 26 | 49 | 64 | 0.9325 | 1.5718 | 1.1542 | 0.8593 | 50 |  |
| c1ccc(C2=C(c3ccccc3)C(c3ccccc3)=C(c3ccccc3)C2)cc1 [Compound 26, 1,2,3,4-Tetraphenyl-1,3-cyclopentadiene] |  | 0 | 27 | 39 | 33 | 1.5966 | 1.1985 | 1.0280 | 1.1131 | 25 |  |
| C1CCc2c(c3c(c4c2CCCC4)CCCC3)C1 [Compound 16, Dodecahydrotriphenylene] |  |  |  |  |  | 1.1867 | 0.9508 | 1.6057 | 1.2478 | 24 | Actual Spleen Weight [10]: 1.161 and 1.2072; Average Perdosage % Inhibition [6]: 28%; Average Perdosage % Inhibition [7]: 44%; Actual Spleen Weight [7]: 0.9062 and 0.9954; Actual Spleen Weight [8]: 1.6206 and 1.5907; Average Perdosage % Inhibition [9]: 24%; Actual Spleen Weight [9]: 1.2007 and 1.2948 |
| c1cc2cccc3c2c(c1)c1c2c4cccc5cccc(c54)c2c2c4cccc5cccc(c54)c2c31 [Compound 1, Decacyclene] | 0.3636 |  |  |  |  |  |  |  |  |  | Average % Inhibition [1]: 57.5%; Actual Spleen Weight [1]: 0.3940 and 0.3331; inhibition of FV-induced splenomegaly / anti-retroviral activity: significantly inhibited FV-induced splenomegaly |
| c1ccc2cc3cc4cc5ccccc5cc4cc3cc2c1 [Compound 28, Pentacene] |  | 13 | 22 | 4 | 11 | 1.4102 | 1.2780 | 1.5384 | 1.4278 | 12 |  |
| Phenylanthracene [Compound 18] |  |  |  |  |  | 1.2169 | 1.1803 | 1.554 | 1.3296 | 19 | Actual Spleen Weight [10]: 1.4116 and 1.0222; Average Perdosage % Inhibition [6]: 26%; Average Perdosage % Inhibition [7]: 28%; Actual Spleen Weight [7]: 1.1141 and 1.2464; Average Perdosage % Inhibition [8]: 3%; Actual Spleen Weight [8]: 1.6206 and 1.4902; Average Perdosage % Inhibition [9]: 18%; Actual Spleen Weight [9]: 1.3797 and 1.2794 |
| O=C1c2ccccc2-c2ccc3c4ccc5c6c(ccc(c7ccc1c2c73)c64)-c1ccccc1C5=O [Compound 3, Isoviolanthrone] | 0.5001 |  |  |  |  |  |  |  |  |  | Average % Inhibition [1]: 41.5%; Actual Spleen Weight [1]: 0.5147 and 0.4855 |
| c1ccc2c(c1)ccc1ccccc12 [Compound 17, Phenanthrene] |  | 36 | 31 | 21 | 17 | 1.0683 | 1.1350 | 1.2864 | 1.3501 | 26 |  |
| Cc1ccc2cc3ccccc3cc2c1 [Compound 25, 2-Methylanthracene] |  |  |  |  |  | 1.1758 | 1.2104 | 1.0606 | 1.1904 | 30 | inhibition in vivo at 0.1 mg [11]: 29%; inhibition in vivo at 0.05 mg [12]: 26%; inhibition in vivo at 0.1 mg [13]: 37%; inhibition in vivo at 0.2 mg [14]: 28% |
| c1cc2c3c(ccc4c3c1CCC4)CCC2 [Compound 23, 1,2,3,6,7,8-Hexahydropyrene] |  | 32 | 26 | 6 | 34 | 1.1281 | 1.2092 | 1.5131 | 1.0961 | 25 |  |
| c1ccc2c(c1)c1ccccc1c1ccccc21 [Compound 19, Triphenylene] |  |  |  |  |  | 1.4063 | 1.0499 | 1.5345 | 1.3994 | 17 | inhibition in vivo at 0.1 mg [11]: 13%; inhibition in vivo at 0.05 mg [12]: 37%; inhibition in vivo at 0.1 mg [13]: 4%; inhibition in vivo at 0.2 mg [14]: 13% |
